The target in experiment [1] is T1, human α1H T-type channels (Homo sapiens, UniProt O95180).
T1 construct: expressed in transfected cells; host or cells: HEK 293
Briefly: T-type calcium channel block, whole cell patch clamp in HEK cells (α1H). The format is cell-based. Conditions: HEK cells, patch clamp, mainly non-inactivated protocol; values above 10 μM shown as 10 μM; read-out: T-type Calcium Channel Block α1H IC50. On the technique in general: The patch-clamp technique gives a direct electrical read-out from membranes.

In experiment [2] the target is T2, human α1G T-type channels (Homo sapiens, UniProt O43497).
T2 construct: expressed in transfected cells; host or cells: HEK 293
T2 sequence (O43497 whole entry): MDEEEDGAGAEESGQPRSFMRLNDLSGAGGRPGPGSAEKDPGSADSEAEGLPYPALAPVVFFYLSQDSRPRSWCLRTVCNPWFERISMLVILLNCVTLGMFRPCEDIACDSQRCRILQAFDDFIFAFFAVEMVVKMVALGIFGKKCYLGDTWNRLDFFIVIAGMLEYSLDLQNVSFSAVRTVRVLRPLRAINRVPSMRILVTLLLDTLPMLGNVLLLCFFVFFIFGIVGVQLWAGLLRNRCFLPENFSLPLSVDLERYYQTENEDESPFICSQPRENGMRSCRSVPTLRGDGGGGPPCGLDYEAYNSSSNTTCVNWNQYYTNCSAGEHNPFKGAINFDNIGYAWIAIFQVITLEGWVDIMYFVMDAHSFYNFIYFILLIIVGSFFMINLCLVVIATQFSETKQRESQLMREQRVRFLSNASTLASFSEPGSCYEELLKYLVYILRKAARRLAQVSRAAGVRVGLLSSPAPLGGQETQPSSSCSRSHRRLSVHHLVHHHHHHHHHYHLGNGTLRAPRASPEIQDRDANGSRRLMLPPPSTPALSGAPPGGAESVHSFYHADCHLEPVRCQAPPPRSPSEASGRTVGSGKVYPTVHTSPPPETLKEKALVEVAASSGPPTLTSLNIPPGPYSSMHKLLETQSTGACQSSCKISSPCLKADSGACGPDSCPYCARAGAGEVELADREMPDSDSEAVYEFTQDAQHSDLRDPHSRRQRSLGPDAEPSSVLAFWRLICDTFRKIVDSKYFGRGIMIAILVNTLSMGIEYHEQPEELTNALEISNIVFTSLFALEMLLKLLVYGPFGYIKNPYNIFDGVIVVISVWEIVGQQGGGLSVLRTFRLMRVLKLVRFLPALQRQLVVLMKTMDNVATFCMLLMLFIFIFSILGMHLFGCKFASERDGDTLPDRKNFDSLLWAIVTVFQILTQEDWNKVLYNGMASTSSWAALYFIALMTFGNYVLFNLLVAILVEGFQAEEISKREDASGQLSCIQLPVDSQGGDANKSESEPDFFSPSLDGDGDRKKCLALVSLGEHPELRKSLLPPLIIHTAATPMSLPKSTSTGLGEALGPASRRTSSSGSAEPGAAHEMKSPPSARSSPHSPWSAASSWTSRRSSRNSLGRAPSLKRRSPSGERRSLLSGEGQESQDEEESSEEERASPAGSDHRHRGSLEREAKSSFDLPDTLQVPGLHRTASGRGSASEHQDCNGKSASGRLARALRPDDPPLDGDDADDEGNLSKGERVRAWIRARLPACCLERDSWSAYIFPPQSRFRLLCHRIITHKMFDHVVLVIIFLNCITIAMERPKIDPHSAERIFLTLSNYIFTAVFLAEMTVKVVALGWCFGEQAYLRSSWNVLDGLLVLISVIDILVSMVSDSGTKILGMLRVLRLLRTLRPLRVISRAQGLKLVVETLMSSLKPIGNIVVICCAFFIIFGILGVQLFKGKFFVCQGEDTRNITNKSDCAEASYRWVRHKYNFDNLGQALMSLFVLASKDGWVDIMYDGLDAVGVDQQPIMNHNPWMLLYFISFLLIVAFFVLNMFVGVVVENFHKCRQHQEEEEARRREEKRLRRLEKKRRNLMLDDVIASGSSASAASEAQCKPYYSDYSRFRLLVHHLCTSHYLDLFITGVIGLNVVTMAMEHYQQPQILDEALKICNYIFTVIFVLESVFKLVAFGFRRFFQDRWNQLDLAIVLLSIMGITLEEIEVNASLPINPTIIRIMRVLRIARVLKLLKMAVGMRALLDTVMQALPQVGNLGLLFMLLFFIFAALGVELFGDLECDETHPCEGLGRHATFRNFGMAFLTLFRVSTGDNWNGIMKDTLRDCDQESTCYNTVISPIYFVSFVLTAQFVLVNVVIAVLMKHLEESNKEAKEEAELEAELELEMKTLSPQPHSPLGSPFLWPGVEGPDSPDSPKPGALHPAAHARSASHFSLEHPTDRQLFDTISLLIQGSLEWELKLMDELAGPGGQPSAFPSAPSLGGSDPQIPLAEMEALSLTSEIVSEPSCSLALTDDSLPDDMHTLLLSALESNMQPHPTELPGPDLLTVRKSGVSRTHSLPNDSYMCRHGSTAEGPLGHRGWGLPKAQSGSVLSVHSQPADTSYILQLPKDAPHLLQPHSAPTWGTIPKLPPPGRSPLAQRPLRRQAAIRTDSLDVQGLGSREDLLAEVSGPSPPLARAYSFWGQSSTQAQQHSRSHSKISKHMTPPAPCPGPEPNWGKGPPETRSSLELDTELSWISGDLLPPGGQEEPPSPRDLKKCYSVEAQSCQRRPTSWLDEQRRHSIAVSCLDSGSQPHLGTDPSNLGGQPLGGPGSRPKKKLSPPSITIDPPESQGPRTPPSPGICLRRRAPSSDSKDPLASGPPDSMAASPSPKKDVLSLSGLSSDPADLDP
Briefly: T-type calcium channel block, whole cell patch clamp in HEK cells (α1G). To be noted: HEK cells, patch clamp, mainly non-inactivated protocol; values above 10 μM shown as 10 μM, below 0.30 μM shown as 0.30 μM; read-out: T-type Calcium Channel Block α1G IC50. The class given is cell-based.

The structures appear in SMILES notation. Where only a bound is given, the exact number is not on record here.

T1 sequence (O95180 whole entry): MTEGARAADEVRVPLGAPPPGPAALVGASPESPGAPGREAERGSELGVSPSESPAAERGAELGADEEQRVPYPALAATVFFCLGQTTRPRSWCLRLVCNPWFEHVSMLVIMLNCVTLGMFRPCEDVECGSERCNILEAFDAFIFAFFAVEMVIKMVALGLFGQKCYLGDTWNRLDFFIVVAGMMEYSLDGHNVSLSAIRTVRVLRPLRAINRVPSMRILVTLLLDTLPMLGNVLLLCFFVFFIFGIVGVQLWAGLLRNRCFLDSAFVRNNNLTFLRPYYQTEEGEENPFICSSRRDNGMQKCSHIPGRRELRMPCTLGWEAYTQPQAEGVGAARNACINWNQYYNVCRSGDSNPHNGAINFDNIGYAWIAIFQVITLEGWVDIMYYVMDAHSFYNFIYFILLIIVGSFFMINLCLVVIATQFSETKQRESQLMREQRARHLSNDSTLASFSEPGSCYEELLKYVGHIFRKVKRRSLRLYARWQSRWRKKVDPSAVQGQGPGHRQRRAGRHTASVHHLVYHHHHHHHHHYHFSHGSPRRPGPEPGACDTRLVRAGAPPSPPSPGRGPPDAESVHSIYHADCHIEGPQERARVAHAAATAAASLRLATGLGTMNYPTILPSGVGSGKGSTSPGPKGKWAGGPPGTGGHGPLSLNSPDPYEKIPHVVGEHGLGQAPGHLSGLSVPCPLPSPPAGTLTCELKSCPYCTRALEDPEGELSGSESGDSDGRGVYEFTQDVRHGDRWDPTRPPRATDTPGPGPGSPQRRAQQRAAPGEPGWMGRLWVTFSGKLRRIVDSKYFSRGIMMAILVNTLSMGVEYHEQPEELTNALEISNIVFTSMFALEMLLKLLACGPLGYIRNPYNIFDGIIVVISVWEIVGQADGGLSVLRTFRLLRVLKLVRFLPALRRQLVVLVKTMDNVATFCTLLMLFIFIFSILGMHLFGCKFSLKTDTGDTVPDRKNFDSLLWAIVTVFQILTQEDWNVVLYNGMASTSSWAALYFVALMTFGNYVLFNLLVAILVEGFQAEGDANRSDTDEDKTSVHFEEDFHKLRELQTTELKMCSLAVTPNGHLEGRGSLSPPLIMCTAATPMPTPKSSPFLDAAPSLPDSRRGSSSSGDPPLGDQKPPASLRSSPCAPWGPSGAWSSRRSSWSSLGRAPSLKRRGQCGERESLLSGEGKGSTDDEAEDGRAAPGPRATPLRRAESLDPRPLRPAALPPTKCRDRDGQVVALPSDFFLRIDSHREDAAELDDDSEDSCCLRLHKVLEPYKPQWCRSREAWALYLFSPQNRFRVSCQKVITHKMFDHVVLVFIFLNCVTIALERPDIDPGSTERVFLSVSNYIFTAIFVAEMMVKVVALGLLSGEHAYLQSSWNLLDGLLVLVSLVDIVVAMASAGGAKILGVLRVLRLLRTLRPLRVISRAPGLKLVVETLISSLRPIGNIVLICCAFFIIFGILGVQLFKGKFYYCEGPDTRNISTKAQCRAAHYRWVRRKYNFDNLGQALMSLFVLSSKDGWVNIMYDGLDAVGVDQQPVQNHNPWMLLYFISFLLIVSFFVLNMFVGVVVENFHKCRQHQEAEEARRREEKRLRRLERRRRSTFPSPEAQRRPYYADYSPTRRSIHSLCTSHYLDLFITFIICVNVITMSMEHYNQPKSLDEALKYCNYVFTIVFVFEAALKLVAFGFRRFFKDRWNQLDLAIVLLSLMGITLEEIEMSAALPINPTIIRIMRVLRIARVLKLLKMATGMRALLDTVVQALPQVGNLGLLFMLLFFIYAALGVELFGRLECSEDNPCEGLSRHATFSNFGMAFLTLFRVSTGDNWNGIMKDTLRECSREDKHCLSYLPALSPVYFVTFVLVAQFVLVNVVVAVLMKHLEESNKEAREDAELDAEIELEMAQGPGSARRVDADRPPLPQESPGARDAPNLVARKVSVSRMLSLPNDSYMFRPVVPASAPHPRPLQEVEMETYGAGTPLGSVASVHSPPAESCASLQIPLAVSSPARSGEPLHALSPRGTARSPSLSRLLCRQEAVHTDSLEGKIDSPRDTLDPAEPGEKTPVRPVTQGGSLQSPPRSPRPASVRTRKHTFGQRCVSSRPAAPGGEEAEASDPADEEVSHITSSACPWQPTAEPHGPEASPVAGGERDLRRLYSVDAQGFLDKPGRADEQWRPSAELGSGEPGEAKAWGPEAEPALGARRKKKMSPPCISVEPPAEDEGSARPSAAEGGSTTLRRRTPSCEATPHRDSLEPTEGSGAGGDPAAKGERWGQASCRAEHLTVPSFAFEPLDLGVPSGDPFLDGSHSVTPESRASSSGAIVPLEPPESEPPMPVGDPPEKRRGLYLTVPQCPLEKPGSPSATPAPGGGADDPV

For the compound `CC(C(=O)N1CCSC1)N1CCC(CNC(=O)c2cc(F)cc(Cl)c2)CC1` (stereo not drawn) [Compound 559, 3-chloro-5-fluoro-N-((1-(1-oxo-1-(thiazolidin-3-yl)propan-2-yl)piperidin-4-yl)methyl)benzamide], the figures for the IC50 in experiment [1] and in experiment [2] were above 10 µM and 9.06 µM, respectively.

Turning to `O=C(NCC1CCN(C(=O)CNC2CC2)CC1)c1cc(C(F)(F)F)cc(C(F)(F)F)c1` [Compound 257, N-((1-(2-(cyclopropylamino)acetyl)piperidin-4-yl)methyl)-3,5-bis(trifluoromethyl)benzamide], the IC50 (usually the concentration that gives 50% inhibition) in experiment [1] turned out to be 2.42 µM; in experiment [2], 3.21 µM.

For `O=C(NCC1CCN(CC(=O)N2CC[C@H](C(F)(F)F)C2)CC1)c1cc(C(F)(F)F)cc(C(F)(F)F)c1` [Compound 348, (S)-N-((1-(2-oxo-2-(3-(trifluoromethyl)pyrrolidin-1-yl)ethyl)piperidin-4-yl)methyl)-3,5-bis(trifluoromethyl)benzamide], the figures for the IC50 in experiment [1] and in experiment [2] were 0.11 µM and below 0.3 µM, respectively.

Turning to `CC(C)(C)NC(=O)CN1CCC(CNC(=O)Cc2cc(C(F)(F)F)cc(C(F)(F)F)c2)CC1` [Compound 383, 2-(3,5-bis(trifluoromethyl)phenyl)-N-((1-(2-(tert-butylamino)-2-oxoethyl)piperidin-4-yl)methyl)acetamide], the figures for the IC50 in experiment [1] and in experiment [2] were 1.35 µM and 1.22 µM, respectively.

Take `CC(C)(C)OC(=O)NCCN1CCC(CNC(=O)c2cc(Cl)cc(Cl)c2)CC1` [Compound 43, tert-butyl 2-(4-((3,5-dichlorobenzamido)methyl)piperidin-1-yl)ethylcarbamate]: the concentration for half-maximal inhibition (IC50) in experiment [1] is 0.15 µM; in experiment [2] it was below 0.3 µM.

Take `O=C(NCC1CCN(CC(=O)N2CC[C@H](C(F)(F)F)C2)CC1)c1cc(F)cc(C(F)(F)F)c1` [Compound 355, (S)-3-fluoro-N-((1-(2-oxo-2-(3-(trifluoromethyl)pyrrolidin-1-yl)ethyl)piperidin-4-yl)methyl)-5-(trifluoromethyl)benzamide]: the half-inhibitory concentration (IC50) in experiment [1] is 0.16 µM; in experiment [2] it was below 0.3 µM.

Consider `COc1cc(F)cc(C(=O)NCC2CCN(CC(=O)N(C)C3(C)CCC3)CC2)c1` [Compound 584, 3-fluoro-5-methoxy-N-((1-(2-(methyl(1-methylcyclobutyl)amino)-2-oxoethyl)piperidin-4-yl)methyl)benzamide], for which the figures for the IC50 in experiment [1] and in experiment [2] were 0.28 µM and below 0.3 µM, respectively.

`CC(C)(C)C(=O)NCCN1CCC(CNC(=O)c2cccc(Cl)c2)CC1` [Compound 299, 3-chloro-N-((1-(2-pivalamidoethyl)piperidin-4-yl)methyl)benzamide]: the half-inhibitory concentration (IC50) is 1.98 µM in experiment [1] and 1.21 µM in experiment [2].

On to `O=C(/C=C/c1cc(F)cc(F)c1)NCC1CCN(CCNS(=O)(=O)C2CC2)CC1` [Compound 231, (E)-N-((1-(2-(cyclopropanesulfonamido)ethyl)piperidin-4-yl)methyl)-3-(3,5-difluorophenyl)acrylamide], for which the concentration for half-maximal inhibition (IC50) in experiment [1] and in experiment [2] was above 10 µM throughout.

Turning to `CC(C)(C)OC(=O)NCCN1CCC(CNC(=O)c2cc(C(F)(F)F)cc(C(F)(F)F)c2)CC1` [Compound 35, tert-butyl 2-(4-((3,5-bis(trifluoromethyl)benzamido)methyl)piperidin-1-yl)ethylcarbamate], the IC50 stood at 0.16 µM in experiment [1] and 0.41 µM in experiment [2].

For `CN(C(=O)CN1CCC(CNC(=O)c2cc(F)cc(Cl)c2)CC1)C(C)(C)C(F)(F)F` [Compound 579, 3-chloro-5-fluoro-N-((1-(2-(methyl (1,1,1-trifluoro-2-methylpropan-2-yl)amino)-2-oxoethyl)piperidin-4-yl)methyl)benzamide], the IC50 in experiment [1] is 0.05 µM; in experiment [2], below 0.3 µM.

Consider `O=C(NCC1CCN(CCNC(=O)C2(C(F)(F)F)CCC2)CC1)c1cc(F)cc(C(F)(F)F)c1` [Compound 435, 3-fluoro-5-(trifluoromethyl)-N-((1-(2-(1-(trifluoromethyl)cyclobutanecarboxamido)ethyl)piperidin-4-yl)methyl)benzamide], for which the results for the half-maximal inhibitory concentration (IC50) in experiment [1] and in experiment [2] were 0.09 µM and below 0.3 µM, respectively.

These data come from US8569344B2, “N-piperidinyl acetamide derivatives as calcium channel blockers” (Zalicus Pharmaceuticals Ltd., priority 2008, dated 2013).
